Data published in US20160058743A1, “METHODS FOR TREATING SENSORIMOTOR IMPAIRMENTS ASSOCIATED WITH CERTAIN TYPES OF STROKE USING AMINOPYRIDINES” (ACORDA THERAPEUTICS, INC., priority 2013, published 2016).
Values joined by “and” are separate entries in the source; they are usually repeats but may differ in a detail not shown here. Equal entries are not always repeated. Where two headings read alike, the source gives them in different places.

What was measured:
[1] = tested on: rats with middle cerebral artery occlusion (MCAO); experiment: Cylinder test (overall asymmetry, total movement) after MCAO; assay type: in vivo, Sprague Dawley rats; parameters: Cylinder Test (Total Movement) / Cylinder Test (Total Movement), Mean: unit not given here; conditions: for Cylinder Test (Total Movement) / Cylinder Test Score (Overall Asymmetry (%)): individual animals and group Mean; for Cylinder Test (Total Movement), Mean: N 15
Excerpt: In particular, the MCAO model in Sprague Dawley rats that was utilized in the experiments presented below mimics the conditions in human ischemic stroke. In this model, focal cerebral infarcts were made by permanent occlusion of the proximal right middle cerebral artery (MCA) using a modification of the method of Tamura et al. (No To […] 1986; 38:747-51). Briefly, the temporalis muscle was bisected and reflected through an incision made midway between the eye and the ear canal. The proximal MCA was exposed through a subtemporal craniectomy without removing the zygomatic arch and without transecting the facial nerve. […] In this experiment, Sprague Dawley rats were anesthetized, subjected to a surgery resulting in middle cerebral artery occlusion (MCAO), treated with and without 4-aminopyridine and behavioral assessments were performed as described below. Treatment was initiated at 4 weeks after stroke. Dosing and Treatment: Rats were treated in accordance with the dosing schedule shown in Tables 2A, 2B, 3 and FIG. 2, with each Phase being a two week period of time. A solution of 4-AP was used in this experiment. […] Vehicle control treatment was WFI delivered at 2 mL/kg by gastric gavage. […] Starting on day 30 after MCAO (Day 30, start of phase 1), the animals received gavage dosing of solutions (2 mL/kg) approximately 12 hours apart, for a total of five doses. The same schedule was repeated with different treatment on Day 44 and Day 58 for phase 2 and 3 of the study, respectively. Animals were not treated during the 10 days between phases (washout period). Treatment groups: Dosing was started 4 weeks after MCAO surgery. During these 4 weeks, weekly behavioral assessments, as defined below, were performed. […] Animals were given the first dose and behavioral assessments were performed starting 60 minutes after dosing. Animals then received the second dose that day at the appropriate time and b.i.d (preferably every 12 hours) thereafter for 2 more days (3 total days of dosing, 5 total doses). One hour after the 5th dose, animals were subjected to behavioral assessments as defined below. Following the final behavioral assessment, drug was withdrawn for 10 or 11 days, behavior was re-assessed, and then animals were re-challenged with a cross-over treatment (Phase 2 of Table 2B) as described in Tables 2A, 2B and 3, followed by the same behavioral testing and dosing regimen. This cross-over was repeated one more time as well (Phase 3 of Table 2B) (see FIG. 2). Cylinder Test: Evaluation was performed at Day -1 (pre-operation), Day 7, Day 21, Day 30, Day 32, Day 44, Day 46, Day 58, Day 60. This test assessed limb use asymmetry. Rats were placed in a transparent cylinder (20 cm in diameter and 30 cm in height) for 3-6 minutes. A mirror was placed behind the cylinder to determine forelimb movements when animal was turned away from the camera. […] Simultaneous use of both left and right forelimbs while contacting the wall during a full rear was also scored. A total number of 20 forelimb placings were counted during a trial. Data was expressed in terms of percent use of the non-impaired and or impaired forelimb relative to the total number of limb use observations for wall movements.

[2] = 4-aminopyridine plasma levels 90 min after dosing (LC-MS/MS); assay type: in vivo, Sprague Dawley rats; conditions: Sprague Dawley, rat, oral, read-out: Mean (SE) 4-aminopyridine Plasma Level
Protocol: Blood sampling: After the on-drug behavior assessments were completed (Days 30, 32, 44, 46, 58 and 60), approximately 300 microliter blood sample was taken exactly 90 min after dosing to assess 4-AP plasma levels at that time. Blood was collected from the saphenous vein of each animal. Blood was collected into K3 EDTA tubes and centrifuged at 10,000 rpm for 10 minutes at 4 degrees C. Plasma was obtained, frozen and stored at approximately −80 C. Samples were analyzed for 4-AP levels. 4-AP concentration was determined using a validated liquid chromatography with tandem mass spectrometric detection method in positive electrospray mode.
Treatment groups: Animals had MCAO surgery and were allowed to recover for 56 days. Animals were then randomized into 2 groups based on their baseline behavior. Par oral dosing b.i.d. was initiated in the evening of Day 56 after MCAO. Behavior testing during dosing periods was started 1 hour after dosing. Blood was collected via saphenous vein just prior to and during treatment phases just after behavioral testing (90 minutes post dosing). All dosing was via gastric gavage, volume not to exceed 2 mL/kg.
Blood sampling: 300 microliter blood sample was collected from the saphenous vein of each animal on Day 56 just prior to the first dose and then exactly 90 min after the 6 dose at each dose level. Blood was collected, centrifuged, stored and analyzed as described in Example 2, above.

[3] = cited from earlier work

Nc1ccncc1 [4-AP, 4-aminopyridine]
Effect on body symmetry and coordination (cylinder test) ([1]; Example 2, 0.63 or 2 mg/kg b.i.d. p.o., started 4 weeks post MCAO, dose-dependent, reversible): effective to improve body symmetry and coordination
Cylinder Test (Total Movement) ([1]; Group 1, D 7): 131.00 and 130.00 and 77.00 and 57.00 (2×) and 139.00 and 35.00 and 15.00 and 32.00 and 14.00 and 63.00
Cylinder Test (Total Movement) ([1]; Group 1, D 7, mean): 58.07
Cylinder Test (Total Movement) ([1]; Group 1, D 21): 51.00 and 98.00 and 31.00 and 67.00 and 172.00 and 28.00 and 70.00 and 8.00 and 52.00 and 22.00 and 13.00
Cylinder Test (Total Movement) ([1]; Group 1, D 21, mean): 45.67
Cylinder Test (Total Movement) ([1]; Group 1, D 30): 0.00 (3×) and 75.00 and 2.00 and 10.00 (2×) and 6.00 and 13.00 and 12.00 and 4.00
Cylinder Test (Total Movement) ([1]; Group 1, D 32): 11.00 and 54.00 and 22.00 and 39.00 and 10.00 and 8.00 and 14.00 and 15.00 and 0.00 (2×) and 38.00
Cylinder Test (Total Movement) ([1]; Group 1, D 44): 28.00 and 93.00 and 48.00 and 57.00 and 47.00 and 9.00 and 123.00 and 11.00 and 5.00 and 66.00
Cylinder Test (Total Movement) ([1]; Group 1, D 46): 11.00 and 47.00 and 43.00 and 48.00 and 46.00 and 12.00 and 63.00 and 4.00 and 0.00 and 13.00
Cylinder Test (Total Movement) ([1]; Group 1, D 58): 14.00 and 137.00 and 18.00 and 81.00 and 53.00 and 16.00 and 74.00 and 0.00 and 11.00 and 26.00
Cylinder Test (Total Movement) ([1]; Group 1, D 58, mean): 36.47
Cylinder Test (Total Movement) ([1]; Group 1, D 60): 14.00 and 81.00 and 33.00 and 44.00 and 28.00 and 9.00 and 85.00 and 0.00 and 3.00 and 6.00
Cylinder Test (Total Movement) ([1]; Group 1, D 60, mean): 27.40
Cylinder Test (Total Movement) ([1]; Group 1, D −1): 64.00 and 152.00 and 81.00 and 52.00 and 100.00 and 53.00 and 47.00 and 14.00 and 31.00 and 23.00 and 49.00
Cylinder Test (Total Movement) ([1]; Group 1, D −1, mean): 63.07
Cylinder Test Score (Overall Asymmetry (%)) ([1]; Group 2, D 7): 55.47% and 28.85% and 25.00% and 51.56% and 50.00% and 58.33% and 42.36% and 28.57% and 43.14% and 24.32% and 14.29%
Cylinder Test Score (Overall Asymmetry (%)) ([1]; Group 2, D 7, mean): 38.14%
Cylinder Test Score (Overall Asymmetry (%)) ([1]; Group 2, D 21): 56.25% and −23.17% and 66.67% (2×) and 49.06% and 46.43% and 25.32% and 47.83% and 22.22% and 17.86% and −25.00%
Cylinder Test Score (Overall Asymmetry (%)) ([1]; Group 2, D 21, mean): 27.16%
Cylinder Test Score (Overall Asymmetry (%)) ([1]; Group 2, D 30): 51.72% and 0.00% and 4.17% and 56.64% and 27.59% and 75.00% and 20.99% and 27.50% and 16.67% and 20.00%
Cylinder Test Score (Overall Asymmetry (%)) ([1]; Group 2, D 32): 63.29% and 18.18% and 33.33% and 54.78% and 22.73% and 62.50% and 16.00% and 20.00% and 3.85% and 27.66% and −33.33%
Cylinder Test Score (Overall Asymmetry (%)) ([1]; Group 2, D 44): 58.33% and 14.04% and 38.96% and 52.53% and 11.54% and 54.93% and 7.14% and 18.18% and −27.08% and 17.65% and −20.00%
Cylinder Test Score (Overall Asymmetry (%)) ([1]; Group 2, D 44, mean): 14.61%
Cylinder Test Score (Overall Asymmetry (%)) ([1]; Group 2, D 46): 28.57% and 34.85% and 31.40% and 19.05% and 29.33% and 40.35% and 46.15% and 16.95% and 42.86% and 2.86%
Cylinder Test Score (Overall Asymmetry (%)) ([1]; Group 2, D 46, mean): 24.91%
Cylinder Test Score (Overall Asymmetry (%)) ([1]; Group 2, D 58): 29.17% and 50.00% and 66.67% and 54.76% and 30.00% and 88.00% and −7.69% and −16.67% and 62.50%
Cylinder Test Score (Overall Asymmetry (%)) ([1]; Group 2, D 60): 64.00% and 20.00% and 14.29% and 62.50% and 10.00% and 76.47% and 13.95% and 0.00% (2×) and −100.00%
Cylinder Test Score (Overall Asymmetry (%)) ([1]; Group 2, D −1): −15.58% and −1.96% and −24.39% and 2.38% and 0.00% and 1.65% and −2.20% and −7.58% and 21.05% and 8.45% and −2.70% and −5.66%
Cylinder Test Score (Overall Asymmetry (%)) ([1]; Group 2, D −1, mean): −4.05%
Cylinder Test (Total Movement), Mean ([1]; Group 3, D 44 after MCAO): 19.13
Cylinder Test (Total Movement), Mean ([1]; Group 3, D 46 after MCAO): 18.73
Cylinder Test (Total Movement), Mean ([1]; Group 3, D 58 after MCAO): 32.33
concentration at 90 min ([2]; 0.5 mg/kg, Example 17 dose escalation, Dose Level 0.5 mg/kg b.i.d. p.o., 90 min after 6th dose): 68.3 ng/mL
concentration at 90 min ([2]; 0.63 mg/kg, Group 1, Phase 2, Low 0.63 mg/kg b.i.d. p.o., 90 min after dosing): 64 ng/mL
concentration at 90 min ([2]; 0.63 mg/kg, Group 2, Phase 1, Low 0.63 mg/kg b.i.d. p.o., 90 min after dosing): 78.1 ng/mL
concentration at 90 min ([2]; 0.63 mg/kg, Group 3, Phase 3, Low 0.63 mg/kg b.i.d. p.o., 90 min after dosing): 61.8 ng/mL
concentration at 90 min ([2]; 1 mg/kg, Example 17 dose escalation, Dose Level 1.0 mg/kg b.i.d. p.o., 90 min after 6th dose): 114 ng/mL
concentration at 90 min ([2]; 2 mg/kg, Example 17 dose escalation, Dose Level 2.0 mg/kg b.i.d. p.o., 90 min after 6th dose): 185 ng/mL
concentration at 90 min ([2]; 2 mg/kg, Group 1, Phase 1, High 2.0 mg/kg b.i.d. p.o., 90 min after dosing): 142 ng/mL
concentration at 90 min ([2]; 2 mg/kg, Group 2, Phase 3, High 2.0 mg/kg b.i.d. p.o., 90 min after dosing): 144 ng/mL
concentration at 90 min ([2]; 2 mg/kg, Group 3, Phase 2, High 2.0 mg/kg b.i.d. p.o., 90 min after dosing): 129 ng/mL
half life ([3]; Hayes et al., J. Clin. Pharmacol. 2003): 1 to 1.5 h
4-AP plasma concentrations obtained in clinical studies ([3]; typical, (94 ng/mL^−1)): < 1 µM
